Experimental findings from patent US7741521B2, “Inhibition of bid-induced cell-death using small organic molecules” (The Burnham Institute, priority 2004, dated 2010) are described below.

One experiment deals with T1, BID (Mus musculus, UniProt P70444).
T1 construct: poly-His (N); made in house; host or cells: E. coli BL21
T1 sequence (P70444 1-195): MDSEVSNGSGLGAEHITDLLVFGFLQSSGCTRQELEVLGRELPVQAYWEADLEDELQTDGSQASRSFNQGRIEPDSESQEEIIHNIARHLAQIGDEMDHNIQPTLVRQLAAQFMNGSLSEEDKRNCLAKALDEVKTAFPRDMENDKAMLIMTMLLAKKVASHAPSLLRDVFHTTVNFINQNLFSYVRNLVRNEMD
Description: NMR binding to BID (HSQC/TROSY chemical shifts). On the procedure:
Recombinant full length mouse BID was produced from a pET-19b (Novagen) plasmid construct containing the entire nucleotide sequence for BID fused to an N-terminal poly-His tag. Unlabeled BID was expressed in E. coli BL21 in LB media at 37° C., with an induction period of 3-4 hours with 1 mM IPTG. ^15N-labeled BID was similarly produced, with growth occurring in M9 media supplemented with 0.5 g/L ^15NH4Cl. ε-^13C-Met labeled BID was produced in M9 media supplemented with 50 mg/L of ε-^13C-Met at time of induction with IPTG. Following cell lysis, soluble BID was purified over a Hi-Trap chelating column (Amersham, Pharmacia), followed by ion-exchange purification with a MonoQ (Amersham, Pharmacia) column. Final BID samples were dialyzed into a buffer appropriate for the subsequent experiments. tBID was produced by cleavage of purified BID with caspase-8, as known in the art.
For all NMR experiments, BID was exchanged into 50 mM phosphate buffer at pH 7.5 and measurements were performed at 30° C. 2D [^15N,^1H]-TROSY spectra for BID were measured with 0.5 mM samples of ^15N-labeled BID. 2D [^13C,^1H]-HSQC spectra were measured with 0.2 mM samples of ε-^13C-Met labeled BID. 2D [^1H,^1H]-NOESY spectra were acquired with small molecules at a concentration of 0.9 mM in the presence of 10 μM BID. T1ρ competition experiments (200 msec spin-lock duration) were performed on either 100 μM BI-2A7 or a mixture of 100 μM BI-2A7 and 10 μM BI-6C9, in the presence and absence of 10 μM BID. All experiments were performed with either a 500 MHz or 600 MHz Bruker Avance spectrometer, both equipped with TXI probes. Typical parameters for the 2D [^15N,^1H]-TROSY spectra included ^1H and ^15N π/2 pulse lengths of 11 μsec and 40 μsec, respectively; ^1H and ^15N sweep widths of 12 ppm and 32 ppm, respectively; 16 scans and 256 indirect acquisition points and a recycle delay of 1 sec. For the 2D [^13C,^1H]-HSQC typical parameters included ^1H and ^13C π/2 pulse lengths of 10 μsec and 13 μsec, respectively; ^1H and ^13C sweep widths of 12 ppm and 5 ppm, respectively; 128 scans and 80 indirect acquisition points and a recycle delay of 1 sec. […]
To examine the binding affinity of some compounds of the invention to BID, 2D [^13C,^1H]-HSQC spectra in presence of ^13C methionine-labeled protein were measured, as at least one methionine is present in the hydrophobic groove of BID (FIG. 4B). […]
Monitoring the variation of cross-peak intensity upon addition of increasing amounts of compound II, allowed to estimate its dissociation constant KD. The arrow on FIG. 5C indicates the peak that was monitored to determine the Kd for compound II. […]

Experiment [1] deals with HeLa cells transfected with a plasmid encoding tBID. Description: tBID-induced cell death in transfected cells. The format is cell-based. The following applies: 50 µM; without compound 80±5%. On the procedure:
HEK 293T cells were transfected with 0.5 μg of plasmids encoding either GFP or GFP-tBID in 12 wells plate. After 3 hours transfection, various compounds were added in DMSO to the media. After 20 hours of further incubation, cells were collected and either lysed for caspase assays or fixed and stained with DAPI for determination of apoptosis^50. For caspase activity assays, 293T cells were lysed in lysis buffer (10 mM Hepes, pH 7.4, 142.2 mM KCl, 5 mM MgCl2, 0.5 mM EDTD, 0.5% NP-40) containing a protease inhibitor mixture (Roche Molecular Biochemicals). The lysates were normalized for protein concentration (10 μg), then incubated with 100 μM DEVD-AFC. Enzyme activity was determined by the release of AFC-fluorescence and Vmax was calculated (mean±Std. dev; n=3). For DAPI staining, 293T cells were fixed, washed with PBS, and stained with 0.1 mg/ml DAPI. The percentage of GFP-positive cells with apoptotic morphology (fragment nuclei or condensed chromatin) was determined (mean±Std. dev; n=3).
Compound II was also evaluated for its ability to inhibit BID-induced apoptosis in cell; for these experiments, HeLa cells were transfected with a plasmid encoding tBID, and effector caspase activity was measured in cell lysates 24 hours later. […] Moreover, tBID-induced cell death, as measured by caspase-3 activity, was reduced from 80±5% to 35±5% by 50 µM of compound II (FIG. 6E). […]

In the next experiment the target is caspase-8 (Homo sapiens, UniProt Q14790). Put plainly: Caspase-8 mediated BID cleavage (SDS page). The format is biochemical. The following applies: concentrations used in the cellular assay.

Each structure is given as a SMILES string.

Sequence of caspase-8 (Q14790 217-374 limits assumed, species assumed): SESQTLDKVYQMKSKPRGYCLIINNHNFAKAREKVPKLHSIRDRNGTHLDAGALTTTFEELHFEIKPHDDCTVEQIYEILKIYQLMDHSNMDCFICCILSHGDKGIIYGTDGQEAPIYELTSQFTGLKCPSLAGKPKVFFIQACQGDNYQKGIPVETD
Sequence of caspase-8 (Q14790 385-479 limits assumed, species assumed): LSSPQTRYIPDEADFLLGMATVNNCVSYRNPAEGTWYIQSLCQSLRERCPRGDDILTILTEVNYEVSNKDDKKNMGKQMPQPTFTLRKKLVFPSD

As a reminder, the Kd is the concentration at which binding is half-saturated. Consider `COc1ccc(S(=O)(=O)NCCCC(=O)Nc2ccc(Sc3ccc(N)cc3)cc2)cc1` [Compound II, N-[4-(4-amino-phenylsulfanyl)-phenyl]-4-(4-methoxy-benzenesulfonylamino)-butyramide], for which, on BID (2D [13C,1H]-HSQC, 13C methionine-labeled BID, cross-peak intensity upon titration, read-out: dissociation constant KD), the Kd was around 20 µM. For the same compound, in experiment [1], the tBID-induced cell death stood at 35±5%. The “effect on caspase-8 mediated BID cleavage” value on caspase-8 is “does not impair”.
In the case of `Nc1ccc(Sc2ccc(NC(=O)CNC(=O)c3ccc(O)cc3O)cc2)cc1` [Compound I, N-((4-(4-aminophenylthio)phenylcarbamoyl)methyl)-2,4-dihydroxybenzamide], the “specific binding to BID, affinity range” value at BID (2D [15N-1H]-TROSY chemical shift perturbations) is “low micromolar range”. Also, the “binding to BID” value on BID (NMR) is reported as “strong binder”.
